We go through eight molecules from patent publication US11034650B2, “Compounds useful for treating a Mannheimia haemolytica or Histophilus somni infection” (Intervet Inc., priority 2016, dated 2021).

Type in all cases: cell-based
The subject of test [1] is Mannheimia haemolytica MH 6357 (M7/2, reference strain, cattle infection strain). In words: MIC, broth-microdilution (CLSI VET01-A4), strain MH 6357. The conditions noted are these: Mannheimia haemolytica strain MH 6357, broth-microdilution; unit assumed. Put shortly: (§1)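 Compounds were serially diluted twofold in microdilution trays. Growth was judged by eye, and the MIC was the lowest concentration showing no turbidity. Results were interpreted per CLSI VET01-S3.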
In general terms: Dilution methods test growth across graded concentrations, often in twofold steps.

Test [2] has as its system Mannheimia haemolytica MH 6374 (ATCC 33396, reference strain). Kind of test: MIC, broth-microdilution (CLSI VET01-A4), strain MH 6374. Conditions: Mannheimia haemolytica strain MH 6374, broth-microdilution; unit assumed. In outline: as §1
The subject of test [3] is Mannheimia haemolytica MH 10720 (154, BRD field isolate). Kind of test: MIC, broth-microdilution (CLSI VET01-A4), strain MH 10720. Conditions: Mannheimia haemolytica strain MH 10720, broth-microdilution; unit assumed. In outline:
as §1

The test system of test [4] is Mannheimia haemolytica MH 12587 (1071, BRD field isolate, macrolide-resistance: erm+, E+). Kind of test: MIC, broth-microdilution (CLSI VET01-A4), strain MH 12587. Conditions: Mannheimia haemolytica strain MH 12587, broth-microdilution; unit assumed. Put shortly: as §1
Test [5] relates to Mannheimia haemolytica MH 13065 (XB0446-6003.9, BRD field isolate). Kind of test: MIC, broth-microdilution (CLSI VET01-A4), strain MH 13065. The conditions noted are these: Mannheimia haemolytica strain MH 13065, broth-microdilution; unit assumed. In outline: as §1
For test [6], the system named is Mannheimia haemolytica MH 13093 (XB0472-6014.1, BRD field isolate). In words: MIC, broth-microdilution (CLSI VET01-A4), strain MH 13093. The conditions noted are these: Mannheimia haemolytica strain MH 13093, broth-microdilution; unit assumed. In outline: as §1
The subject of test [7] is Pasteurella multocida PM 6267 (P 2225 (L386), reference strain, mouse infection strain). In words: MIC, broth-microdilution (CLSI VET01-A4), strain PM 6267. The conditions noted are these: Pasteurella multocida strain PM 6267, broth-microdilution; unit assumed. Put shortly:
as §1

The test system of test [8] is Pasteurella multocida PM 6391 (ATCC 43137, reference strain). Kind of test: MIC, broth-microdilution (CLSI VET01-A4), strain PM 6391. The conditions noted are these: Pasteurella multocida strain PM 6391, broth-microdilution; unit assumed. Put shortly:
as §1

The test system of test [9] is Pasteurella multocida PM 10775 (080130003051, BRD field isolate). Kind of test: MIC, broth-microdilution (CLSI VET01-A4), strain PM 10775. Conditions: Pasteurella multocida strain PM 10775, broth-microdilution; unit assumed. Put shortly: as §1
Test [10] relates to Pasteurella multocida PM 12080 (IV102277-0093, BRD field isolate). Kind of test: MIC, broth-microdilution (CLSI VET01-A4), strain PM 12080. Conditions: Pasteurella multocida strain PM 12080, broth-microdilution; unit assumed. Put shortly: as §1

Molecules are shown by their SMILES. Converted amounts (≈) assume the structure as drawn.

`CC(C)[C@H](NC(=O)c1ccc(C#Cc2ccc(CNCc3ccnc(Cl)c3)cc2)cc1)C(=O)NO` [Compound 168]: the MIC MH 6357 in test [1] turned out to be 0.4 µg/mL (≈ 0.815 µM). This molecule also registered an MIC MH 6374 in [2] of 0.8 µg/mL (≈ 1.63 µM). Also, the MIC MH 10720 in test [3] was 0.2 µg/mL (≈ 0.407 µM). The MIC MH 12587 in [4] turned out to be 1.6 µg/mL (≈ 3.26 µM). The MIC MH 13065 in test [5] stood at 0.8 µg/mL (≈ 1.63 µM). This molecule registered an MIC MH 13093 in test [6] of 0.8 µg/mL (≈ 1.63 µM). Moreover, the MIC PM 6267 in test [7] was at most 0.1 µg/mL. The MIC PM 6391 in test [8] was determined as 0.4 µg/mL (≈ 0.815 µM). Further, the MIC PM 10775 in test [9] was at most 0.1 µg/mL. The MIC PM 12080 in [10] came out at 0.2 µg/mL (≈ 0.407 µM).
In test [1], `CC(C)[C@H](NC(=O)c1ccc(C#Cc2ccc(CNCc3ccccn3)cc2)cc1)C(=O)NO` [Compound 169] returned an MIC MH 6357 of 0.4 µg/mL (≈ 0.876 µM). The molecule further came in with an MIC MH 6374 in test [2] of 0.8 µg/mL (≈ 1.75 µM). For the same molecule, the MIC MH 10720 in test [3] is 0.2 µg/mL (≈ 0.438 µM). Also, the MIC MH 12587 in test [4] came out at 1.6 µg/mL (≈ 3.5 µM). Besides, the MIC MH 13065 in [5] stood at 0.8 µg/mL (≈ 1.75 µM). In test [6], this molecule had an MIC MH 13093 of 0.8 µg/mL (≈ 1.75 µM). Further, the MIC PM 6267 in [7] is at most 0.1 µg/mL. For the same molecule, the MIC PM 6391 in test [8] amounted to 0.4 µg/mL (≈ 0.876 µM). The same molecule registered an MIC PM 10775 in test [9] of at most 0.1 µg/mL. Further, the MIC PM 12080 in [10] was found to be 0.4 µg/mL (≈ 0.876 µM).
`CC(C)[C@H](NC(=O)c1ccc(C#Cc2ccc(CNCc3ccco3)cc2)cc1)C(=O)NO` [Compound 170]: the MIC MH 6357 in [1] was determined as 0.2 µg/mL (≈ 0.449 µM). The molecule also had an MIC MH 6374 in test [2] of 0.4 µg/mL (≈ 0.898 µM). Also, the MIC MH 10720 in test [3] is at most 0.1 µg/mL. In addition, the MIC MH 12587 in [4] amounted to 0.4 µg/mL (≈ 0.898 µM). For the same molecule, the MIC MH 13065 in test [5] is 0.4 µg/mL (≈ 0.898 µM). The molecule further showed an MIC MH 13093 in [6] of 0.4 µg/mL (≈ 0.898 µM). Moreover, the MIC PM 6267 in test [7] was at most 0.1 µg/mL. Besides, the MIC PM 6391 in test [8] worked out at 0.4 µg/mL (≈ 0.898 µM). In test [9], the MIC PM 10775 is at most 0.1 µg/mL. In [10], this molecule registered an MIC PM 12080 of 0.2 µg/mL (≈ 0.449 µM).
In test [1], `CC(C)[C@H](NC(=O)c1ccc(C#Cc2ccc(CNCc3cccs3)cc2)cc1)C(=O)NO` [Compound 171] gave an MIC MH 6357 of 0.2 µg/mL (≈ 0.433 µM). The same molecule had an MIC MH 6374 in test [2] of 0.4 µg/mL (≈ 0.867 µM). For the same molecule, the MIC MH 10720 in [3] was at most 0.1 µg/mL. The molecule also returned an MIC MH 12587 in test [4] of 0.8 µg/mL (≈ 1.73 µM). The same molecule displayed an MIC MH 13065 in [5] of 0.2 µg/mL (≈ 0.433 µM). The MIC MH 13093 in [6] was determined as 0.4 µg/mL (≈ 0.867 µM). Further, in test [7], the MIC PM 6267 is at most 0.1 µg/mL. The MIC PM 6391 in test [8] is 0.2 µg/mL (≈ 0.433 µM). In test [9], this molecule gave an MIC PM 10775 of at most 0.1 µg/mL. The molecule also returned an MIC PM 12080 in test [10] of at most 0.1 µg/mL.
Turning to `Cc1ccc(CNCc2ccc(C#Cc3ccc(C(=O)N[C@H](C(=O)NO)C(C)C)cc3)cc2)cc1` [Compound 172], in [1], the MIC MH 6357 amounted to 0.4 µg/mL (≈ 0.852 µM). The molecule also yielded an MIC MH 6374 in test [2] of 0.8 µg/mL (≈ 1.7 µM). Besides, the MIC MH 10720 in test [3] amounted to 0.4 µg/mL (≈ 0.852 µM). In test [4], this molecule showed an MIC MH 12587 of 1.6 µg/mL (≈ 3.41 µM). The MIC MH 13065 in test [5] was determined as 0.8 µg/mL (≈ 1.7 µM). Also, in [6], the MIC MH 13093 was determined as 0.8 µg/mL (≈ 1.7 µM). In test [7], this molecule came in with an MIC PM 6267 of 0.2 µg/mL (≈ 0.426 µM). The molecule further yielded an MIC PM 6391 in test [8] of 0.4 µg/mL (≈ 0.852 µM). In test [9], this molecule gave an MIC PM 10775 of at most 0.1 µg/mL. In addition, in test [10], the MIC PM 12080 was determined as 0.4 µg/mL (≈ 0.852 µM).
Turning to `CC(C)[C@H](NC(=O)c1ccc(C#Cc2ccc(CNCc3ncc[nH]3)cc2)cc1)C(=O)NO` [Compound 173], the MIC MH 6357 in test [1] was 3.1 µg/mL (≈ 6.96 µM). Further, the MIC MH 6374 in [2] turned out to be 3.1 µg/mL (≈ 6.96 µM). In [3], this molecule returned an MIC MH 10720 of 0.8 µg/mL (≈ 1.8 µM). In test [4], this molecule returned an MIC MH 12587 of 6.3 µg/mL (≈ 14.1 µM). Further, the MIC MH 13065 in test [5] came out at 6.3 µg/mL (≈ 14.1 µM). Moreover, the MIC MH 13093 in [6] was found to be 6.3 µg/mL (≈ 14.1 µM). The molecule further yielded an MIC PM 6267 in test [7] of at most 0.1 µg/mL. In test [8], this molecule registered an MIC PM 6391 of 0.8 µg/mL (≈ 1.8 µM). The same molecule showed an MIC PM 10775 in [9] of at most 0.1 µg/mL. The molecule further came in with an MIC PM 12080 in test [10] of 0.4 µg/mL (≈ 0.898 µM).
Take `CC[C@H](C)[C@H](NC(=O)c1ccc(C#Cc2ccc(CN3CCCC3)cc2)cc1)C(=O)NO` [Compound 174]: the MIC MH 6357 in test [1] worked out at 3.1 µg/mL (≈ 7.15 µM). Further, in test [2], the MIC MH 6374 was 6.3 µg/mL (≈ 14.5 µM). This molecule gave an MIC MH 10720 in [3] of 0.8 µg/mL (≈ 1.85 µM). For the same molecule, the MIC MH 12587 in [4] came to 6.3 µg/mL (≈ 14.5 µM). For the same molecule, in [5], the MIC MH 13065 amounted to 6.3 µg/mL (≈ 14.5 µM). This molecule came in with an MIC MH 13093 in test [6] of 6.3 µg/mL (≈ 14.5 µM). In test [7], the MIC PM 6267 was determined as 0.4 µg/mL (≈ 0.923 µM). This molecule also gave an MIC PM 6391 in test [8] of 1.6 µg/mL (≈ 3.69 µM). In addition, the MIC PM 10775 in test [9] is at most 0.1 µg/mL. This molecule also returned an MIC PM 12080 in test [10] of 1.6 µg/mL (≈ 3.69 µM).
As for `CC[C@H](C)[C@H](NC(=O)c1ccc(C#Cc2ccc(CN3CCN(C)CC3)cc2)cc1)C(=O)NO` [Compound 175], the MIC MH 6357 in test [1] was determined as 6.3 µg/mL (≈ 13.6 µM). In test [2], this molecule came in with an MIC MH 6374 of 12.5 µg/mL (≈ 27 µM). This molecule registered an MIC MH 10720 in test [3] of 3.1 µg/mL (≈ 6.7 µM). The same molecule yielded an MIC MH 12587 in test [4] of 25 µg/mL (≈ 54 µM). For the same molecule, the MIC MH 13065 in test [5] came to 12.5 µg/mL (≈ 27 µM). In addition, the MIC MH 13093 in test [6] was 12.5 µg/mL (≈ 27 µM). The molecule also had an MIC PM 6267 in test [7] of 0.4 µg/mL (≈ 0.865 µM). This molecule also had an MIC PM 6391 in test [8] of 1.6 µg/mL (≈ 3.46 µM). Moreover, the MIC PM 10775 in test [9] is at most 0.1 µg/mL. Further, in test [10], the MIC PM 12080 amounted to 0.8 µg/mL (≈ 1.73 µM).
